The text below walks through data of patent US7329681B2, “Inhibitors of IMPDH enzyme” (Vertex Pharmaceuticals Incorporated, priority 1996, dated 2008).

The structures appear in SMILES notation.

The target of the first test is IMPDH human type II (Homo sapiens, UniProt P12268). Nature of the test: IMPDH activity inhibition assay (spectrophotometric, NADH formation at 340 nm). The class given is biochemical.
Details: not given
On the procedure: We have measured the inhibition constants of each compound against IMPDH using an adaptation of the method first reported by […]. Moyed, and […]. Biol. Chem., 226, p. 339 (1957)]. We measured the inhibition constants of the compounds listed in Table III utilizing the following protocol: IMP dehydrogenase activity was assayed following an adaptation of the method first reported by […]. Moyed, H. S. and […]. Biol. Chem. 226, 339]. Enzyme activity was measured spectrophotometrically, by monitoring the increase in absorbance at 340 nm due to the formation of NADH (ε340 is 6220 M^-1 cm^-1). The reaction mixture contained 0.1 M Tris pH 8.0, 0.1 M KCl, 3 mM EDTA, 2 mM DTT, […] and enzyme (IMPDH human type II) at a concentration of 15 to 50 nM. This solution is incubated at 37° C. for 10 minutes. The reaction is started by adding NAD to a final concentration of 0.1 M and the initial rate is measured by following the linear increase in absorbance at 340 nm for 10 minutes. For reading in a standard spectrophotometer (path length 1 cm) the final volume in the cuvette is 1.0 ml. The assay has also been adapted to a 96 well microtiter plate format; in this case the concentrations of all the reagents remain the same and the final volume is decreased to 200 μl. For the analysis of inhibitors, the compound in question is dissolved in DMSO to a final concentration of 20 mM and added to the initial assay mixture for preincubation with the enzyme at a final volume of 2-5% (v/v). The reaction is started by the addition of NAD, and the initial rates measured as above. […] The designation “ND” is used where a given compound was not tested.
As a reminder, the Ki is a dissociation constant, usually derived from enzyme kinetics or from competition with a known ligand. Consider `COC(=O)NCc1cccc(NC(=O)Nc2ccc(-c3cnco3)c(OC)c2)c1` [Compound 118], for which the Ki was in the range of 1000 to 10000 nM.

Compound `COc1cc(NC(=O)Nc2cccc(CNC(=O)Oc3ccccc3)c2)ccc1-c1cnco1` [Compound 119] returned an inhibitory constant (Ki) of 0.01 to 50 nM.

In the case of `COC(=O)c1ccc(OC(=O)NCc2cccc(NC(=O)Nc3ccc(-c4cnco4)c(OC)c3)c2)cc1` [Compound 123], the inhibition constant Ki fell in the range of 0.01 to 50 nM.

In the case of `C=CCOC(=O)NCc1cccc(NC(=O)Nc2ccc(-c3cnco3)c(OC)c2)c1` [Compound 125], the inhibitory constant (Ki) lay within 0.01 to 50 nM.

Regarding `COc1cc(NC(=O)Nc2cccc(CNC(=O)Oc3ccc(NC(C)=O)cc3)c2)ccc1-c1cnco1` [Compound 127], the inhibition constant (Ki) was in the range of 0.01 to 50 nM.

Regarding `COc1cc(NC(=O)Nc2cccc(CNC(=O)OCCO)c2)ccc1-c1cnco1` [Compound 134], the inhibition constant (Ki) lay in the range of 0.01 to 50 nM.

`COc1cc(NC(=O)Nc2cccc(CNC(=O)Oc3cccnc3)c2)ccc1-c1cnco1` [Compound 137] displayed a Ki of 51 to 1000 nM.

Staying with this test, now noted: IMPDH human type II, 15 to 50 nM enzyme, 37° C., tight-binding fit (Henderson); read-out: Ki.
On to `O=C(Nc1ccc(-c2cnco2)cc1)Nc1cccc(-c2cnco2)c1` [Compound 67], for which the inhibition constant (Ki) is 1000 to 10000 nM.

With `O=C(Nc1ccc(-c2cnco2)c(Cl)c1)Nc1cccs1` [Compound 68], the Ki was in the range of 51 to 1000 nM.

In the case of `O=C(Nc1ccsc1)Nc1ccc(-c2cnco2)c(Cl)c1` [Compound 69], the inhibition constant Ki is 51 to 1000 nM.

On to `Cc1cccc(NC(=O)Nc2ccc(C#N)c(Cl)c2)c1` [Compound 70], for which the Ki lay within 1000 to 10000 nM.

On to `COC(=O)Nc1cccc(NC(=O)Nc2ccc(-c3cnco3)c(Cl)c2)c1` [Compound 71], for which the inhibitory constant (Ki) was 1000 to 10000 nM.

On to `CC(=O)Nc1cccc(NC(=O)Nc2ccc(-c3cnco3)c(Cl)c2)c1` [Compound 72], for which the Ki was in the range of 1000 to 10000 nM.

Turning to `O=C(Nc1cccc(I)c1)Nc1ccc(-c2cnco2)c(Cl)c1` [Compound 73], the Ki was 51 to 1000 nM.

For the compound `Cc1cc(NC(=O)Nc2ccccc2)ccc1-c1cnco1` [Compound 74], the Ki fell in the range of 51 to 1000 nM.

Consider `Cc1cccc(NC(=O)Nc2ccc(-c3cnco3)c(C)c2)c1` [Compound 75], for which the inhibition constant (Ki) lay within 51 to 1000 nM.

For `Cc1cccc(NC(=O)Nc2ccc(-c3ocnc3C)c(Cl)c2)c1` [Compound 76], the inhibition constant (Ki) is 1000 to 10000 nM.

As for `Cc1cccc(NC(=O)Nc2ccc(-c3ocnc3C)cc2)c1` [Compound 77], the inhibition constant (Ki) lay in the range of 51 to 1000 nM.

With `O=C(Nc1cccc([N+](=O)[O-])c1)Nc1ccc(-c2cnco2)c(Cl)c1` [Compound 78], the inhibition constant (Ki) lay within 51 to 1000 nM.

In the case of `Nc1cccc(NC(=O)Nc2ccc(-c3cnco3)c(Cl)c2)c1` [Compound 79], the Ki was 51 to 1000 nM.

Take `O=C(Nc1ccc(-c2cnco2)cc1)Nc1cccc(S(=O)(=O)NC2CCCCC2)c1` [Compound 80]: the inhibition constant Ki lay within 1000 to 10000 nM.

As to `CNS(=O)(=O)c1cccc(NC(=O)Nc2ccc(-c3cnco3)cc2)c1` [Compound 81], the Ki was in the range of 1000 to 10000 nM.

For `O=C(Nc1ccc(-c2cnco2)cc1)Nc1cccc(S(=O)(=O)Nc2ccccc2)c1` [Compound 82], the Ki lay in the range of 1000 to 10000 nM.

As for `COc1cc(NC(=O)Nc2cccc(NC(=O)OCc3ccccc3)c2)ccc1-c1cnco1` [Compound 83], the Ki fell in the range of 51 to 1000 nM.

For the compound `COc1cc(NC(=O)Nc2cccc(NC(C)=O)c2)ccc1-c1cnco1` [Compound 84], the Ki is 51 to 1000 nM.

Turning to `Cc1ccc(NC(=O)Nc2ccc(-c3cnco3)c(Cl)c2)s1` [Compound 86], the Ki lay in the range of 1000 to 10000 nM.

As for `COC(=O)c1cc(NC(=O)Nc2cccc(C)c2)ccc1-c1cnco1` [Compound 88], the Ki fell in the range of 1000 to 10000 nM.

For the compound `COC(=O)c1cc(NC(=O)Nc2cccc([N+](=O)[O-])c2)ccc1-c1cnco1` [Compound 89], the inhibitory constant (Ki) was 1000 to 10000 nM.

On to `COc1ccc(NC(=O)Nc2cccc(C)c2)cc1CO` [Compound 90], for which the Ki lay in the range of 1000 to 10000 nM.

As to `CN(C(=O)C(F)(F)F)c1cccc(NC(=O)Nc2ccc(-c3cnco3)c(Cl)c2)c1` [Compound 93], the inhibition constant Ki was in the range of 0.01 to 50 nM.

On to `CNc1cccc(NC(=O)Nc2ccc(-c3cnco3)c(Cl)c2)c1` [Compound 94], for which the Ki was in the range of 51 to 1000 nM.

Take `COc1cc(NC(=O)Nc2cccc(NC(=O)C(F)(F)F)c2)ccc1-c1cnco1` [Compound 96]: the Ki lay within 51 to 1000 nM.

For `COc1cc(NC(=O)Nc2cccc(N(C)C(=O)C(F)(F)F)c2)ccc1-c1cnco1` [Compound 97], the inhibitory constant (Ki) was in the range of 0.01 to 50 nM.

In the case of `COc1cc(NC(=O)Nc2cccc(NC(=O)OCc3cccnc3)c2)ccc1-c1cnco1` [Compound 98], the inhibitory constant (Ki) is 51 to 1000 nM.

In the case of `COc1cc(NC(=O)Nc2cccc(NC(=O)Oc3ccccc3)c2)ccc1-c1cnco1` [Compound 99], the inhibitory constant (Ki) was in the range of 0.01 to 50 nM.

As for `COc1cc(NC(=O)Nc2cccc(NC(=O)C(F)F)c2)ccc1-c1cnco1` [Compound 100], the inhibition constant Ki lay in the range of 51 to 1000 nM.

As for `CC(=O)OCc1cc(NC(=O)Nc2cccc(C)c2)ccc1-c1cnco1` [Compound 101], the Ki lay in the range of 1000 to 10000 nM.

For the compound `Cc1cccc(NC(=O)Nc2ccc(-c3cnco3)c(CO)c2)c1` [Compound 102], the Ki lay within 1000 to 10000 nM.

With `CC(C)(C)OC(=O)NCc1cccc(NC(=O)Nc2cccc(CNC(=O)OC(C)(C)C)c2)c1` [Compound 103], the Ki lay within 1000 to 10000 nM.

Take `O=C(Nc1ccc(-c2cnco2)cc1)Nc1ccc(F)c([N+](=O)[O-])c1` [Compound 104]: the Ki was 1000 to 10000 nM.

For the compound `COc1cc(NC(=O)Nc2cccc(CN)c2)ccc1-c1cnco1` [Compound 105], the inhibitory constant (Ki) was in the range of 51 to 1000 nM.

As for `COc1cc(NC(=O)Nc2ccc3c(c2)N(C(C)=O)CC3)ccc1-c1cnco1` [Compound 106], the Ki lay in the range of 51 to 1000 nM.

As for `COc1cc(NC(=O)Nc2cccc(N(C)C(C)=O)c2)ccc1-c1cnco1` [Compound 107], the Ki lay in the range of 0.01 to 50 nM.

For the compound `COc1cc(NC(=O)Nc2cccc(NC(=O)C(=O)c3cc(OC)c(OC)c(OC)c3)c2)ccc1-c1cnco1` [Compound 108], the Ki was in the range of 51 to 1000 nM.

`Cc1cccc(NC(=O)Nc2ccc(-c3cnco3)c(N)c2)c1` [Compound 109]: the Ki was in the range of 51 to 1000 nM.

With `COc1cc(NC(=O)Nc2cccc(NC(=O)c3ccccc3)c2)ccc1-c1cnco1` [Compound 110], the Ki fell in the range of 51 to 1000 nM.

On to `COc1cc(NC(=O)Nc2cccc(NC(=O)Cc3ccccc3)c2)ccc1-c1cnco1` [Compound 111], for which the inhibition constant (Ki) lay within 0.01 to 50 nM.

Regarding `COc1cc(NC(=O)Nc2cccc(NC(=O)Nc3ccccc3)c2)ccc1-c1cnco1` [Compound 112], the inhibition constant (Ki) lay within 51 to 1000 nM.

Consider `COc1cc(NC(=O)Nc2cccc(CNC(=O)OC(C)(C)C)c2)ccc1-c1cnco1` [Compound 113], for which the Ki was in the range of 0.01 to 50 nM.

For `COc1cc(NC(=O)Nc2cccc(NC(=O)CC3CCCC3)c2)ccc1-c1cnco1` [Compound 114], the Ki lay within 51 to 1000 nM.

Regarding `COc1cc(NC(=S)Nc2cccc(C)c2)ccc1-c1cnco1` [Compound 115], the inhibitory constant (Ki) was 51 to 1000 nM.

For the compound `COc1cc(NC(=O)Nc2cccc(CN(C)C(=O)OC(C)(C)C)c2)ccc1-c1cnco1` [Compound 117], the Ki is 51 to 1000 nM.

For the compound `COc1cc(NC(=O)Nc2cccc(CNC(=O)O[C@H]3CCOC3)c2)ccc1-c1cnco1` [Compound 120], the inhibitory constant (Ki) fell in the range of 0.01 to 50 nM.

For the compound `COc1cc(NC(=O)Nc2cccc(CNC(=O)OCc3ccccn3)c2)ccc1-c1cnco1` [Compound 121], the inhibition constant Ki was 0.01 to 50 nM.

With `COc1cc(NC(=O)Nc2cccc(CNC(=O)OC[C@@H]3CNC(=O)O3)c2)ccc1-c1cnco1` [Compound 122], the Ki was 0.01 to 50 nM.

With `COc1cc(NC(=O)Nc2cccc(CNC(=O)OCC(C)C)c2)ccc1-c1cnco1` [Compound 124], the inhibition constant (Ki) was 0.01 to 50 nM.

With `COc1cc(NC(=O)Nc2cccc(CNC(=O)OC3COCOC3)c2)ccc1-c1cnco1` [Compound 126], the inhibition constant Ki is 0.01 to 50 nM.

As to `COc1cc(NC(=O)Nc2cccc(CNC(=O)OCc3ccco3)c2)ccc1-c1cnco1` [Compound 128], the Ki fell in the range of 0.01 to 50 nM.

On to `COc1cc(NC(=O)Nc2cccc(CNC(=O)OCc3cccs3)c2)ccc1-c1cnco1` [Compound 129], for which the inhibitory constant (Ki) lay within 0.01 to 50 nM.

Consider `COCCOC(=O)NCc1cccc(NC(=O)Nc2ccc(-c3cnco3)c(OC)c2)c1` [Compound 130], for which the Ki fell in the range of 0.01 to 50 nM.

Consider `COc1cc(NC(=O)Nc2cccc(CNC(=O)OC3CCOCC3)c2)ccc1-c1cnco1` [Compound 131], for which the inhibitory constant (Ki) fell in the range of 0.01 to 50 nM.

As to `COc1cc(NC(=O)Nc2cccc(CNC(=O)OC3CCCCC3)c2)ccc1-c1cnco1` [Compound 132], the inhibition constant (Ki) is 0.01 to 50 nM.

`COc1cc(NC(=O)Nc2cccc(CNC(=O)OC3CCCC3)c2)ccc1-c1cnco1` [Compound 133]: the Ki was 0.01 to 50 nM.

Regarding `COc1cc(NC(=O)Nc2cccc(CNC(=O)OCC3CCCCC3)c2)ccc1-c1cnco1` [Compound 135], the Ki lay within 0.01 to 50 nM.

With `COc1cc(NC(=O)Nc2cccc(CNC(=O)OC3CCOC3)c2)ccc1-c1cnco1` (centres unmarked) [Compound 136], the Ki was in the range of 0.01 to 50 nM.

`COc1cc(NC(=O)Nc2cccc(CNC(=O)OCc3ccccc3)c2)ccc1-c1cnco1` [Compound 138]: the Ki lay within 0.01 to 50 nM.

On to `COc1cc(NC(=O)Nc2cccc(CNC(=O)OCCCNC(=O)OC(C)(C)C)c2)ccc1-c1cnco1` [Compound 139], for which the Ki lay in the range of 51 to 1000 nM.

For `COc1cc(NC(=O)Nc2cccc(CNC(=O)OCCCCO)c2)ccc1-c1cnco1` [Compound 140], the Ki lay in the range of 0.01 to 50 nM.
